Measured values reported in patent US20120077828A1, “CHEMICAL COMPOUNDS” (priority 2010, published 2012).

These compounds were tested against T1, PERK (Homo sapiens, UniProt Q9NZJ5) (assay: PKR-like Endoplasmic Reticulum Kinase (PERK) Assay (HTRF Format)). Details: average, in at least one set of experimental runs; read-out: average pIC50 value against PERK (converted).
T1 construct: GST-PERK (536-1116) cytoplasmic domain was purchased from Invitrogen; purchased Invitrogen PV5106
T1 sequence (Q9NZJ5 536-1116): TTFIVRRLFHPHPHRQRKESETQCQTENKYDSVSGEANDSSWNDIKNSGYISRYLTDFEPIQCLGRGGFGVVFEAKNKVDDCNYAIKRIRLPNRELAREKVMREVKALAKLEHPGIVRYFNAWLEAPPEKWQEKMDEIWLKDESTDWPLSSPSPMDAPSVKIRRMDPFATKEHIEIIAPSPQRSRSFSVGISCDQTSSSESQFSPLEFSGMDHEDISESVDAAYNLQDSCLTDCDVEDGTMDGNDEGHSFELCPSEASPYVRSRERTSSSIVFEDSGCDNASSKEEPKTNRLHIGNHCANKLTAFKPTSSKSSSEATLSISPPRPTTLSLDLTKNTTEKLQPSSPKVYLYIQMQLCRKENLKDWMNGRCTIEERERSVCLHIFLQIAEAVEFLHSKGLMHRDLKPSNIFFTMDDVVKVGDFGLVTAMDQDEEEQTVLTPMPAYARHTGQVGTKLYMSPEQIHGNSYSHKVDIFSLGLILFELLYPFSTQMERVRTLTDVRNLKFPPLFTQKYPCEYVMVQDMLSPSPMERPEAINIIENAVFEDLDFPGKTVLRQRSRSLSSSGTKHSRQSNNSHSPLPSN
Assay type: biochemical
Description: PKR-like Endoplasmic Reticulum Kinase (PERK) Assay (HTRF Format)
Source of substrate: elF2α: 6-His-Full-length human elF2α is purified from baculovirus expression in Sf9 insect cells. The elF2 protein is buffer exchanged by dialysis into PBS, chemically modified by NHS-LC-Biotin and then buffer exchanged by dialysis into 50 mm TRIS pH 7.2/250 mM NaCl/5 mM DTT. Protein is aliquoted and stored at −80° C.
Assays were performed by adding GST-PERK solution to assay plates containing compounds and pre-incubated for 30 minutes at room temperature. The reaction is initiated by the addition of ATP and EIF2α substrate solution. Quench solution is added following a one hour incubation at room temperature. The plates are covered for 2 hours at room temperature prior to determination of signal. The resulting signal is quantified on a Viewlux Reader (PerkinElmer). The APC Signal is normalized to the Europium signal by transforming the data through an APC/Eu calculation.
Compounds under analysis were dissolved in DMSO to 1.0 mM and serially diluted 1 to 3 with DMSO through eleven dilutions. 0.1 μl of each concentration was transferred to the corresponding well of an assay plate. This creates a final compound concentration range from 0.00017 to 10 μM.
The data for concentration response curves were plotted as % Inhibition calculated with the data reduction formula 100*(1−(U1−C2)/(C1−C2)) versus concentration of compound where U is the unknown value, C1 is the average control value obtained for 1% DMSO, and C2 is the average control value obtained for 0.1 M EDTA. Data were fitted with a curve described by:
where A is the minimum y, B is the maximum y concentration [M], D is the slope factor, and x is the log10 of the compound.
In the above data, pIC50 is defined as −log(IC50) where the IC50 value is expressed in molar units.

SMILES	IC50 [nM]
Cc1ccccc1CC(=O)N1CCc2cc(-c3cn(C)c4ncnc(N)c34)ccc21 [Example 33, 7-methyl-5-{1-[(2-methylphenyl)acetyl]-2,3-dihydro-1H-indol-5-yl}-7H-pyrrolo[2,3-d]pyrimidin-4-amine]	≤ 0.316
Cc1cccc(CC(=O)N2CCc3cc(-c4csc5ncnc(N)c45)ccc32)c1 [Example 64, 5-{1-[(3-methylphenyl)acetyl]-2,3-dihydro-1H-indol-5-yl}thieno[2,3-d]pyrimidin-4-amine]	≤ 1
Nc1ncnc2occ(-c3ccc4c(c3)CCN4C(=O)Cc3cc(F)cc(C(F)(F)F)c3)c12 [Example 119, 5-(1-{[3-fluoro-5-(trifluoromethyl)phenyl]acetyl}-2,3-dihydro-1H-indol-5-yl)furo[2,3-d]pyrimidin-4-amine]	≤ 2.51
Cc1cccc(CC(=O)N2CCc3cc(-c4cn(C5CCNCC5)c5ncnc(N)c45)ccc32)c1 [Example 62, 5-{1-[(3-methylphenyl)acetyl]-2,3-dihydro-1H-indol-5-yl}-7-(4-piperidinyl)-7H-pyrrolo[2,3-d]pyrimidin-4-amine]	≤ 1
Nc1ncnc2c1c(-c1ccc3c(c1)CCN3C(=O)Cc1cc(F)ccc1F)cn2C1CNC1 [Example 144, 7-(3-azetidinyl)-5-{1-[(2,5-difluorophenyl)acetyl]-2,3-dihydro-1H-indol-5-yl}-7H-pyrrolo[2,3-d]pyrimidin-4-amine]	≤ 0.316
Cn1nc(-c2ccc3c(c2)CCN3C(=O)Cc2cc(F)cc(F)c2F)c2c(N)ncnc21 [Example 55, 1-methyl-3-{1-[(2,3,5-trifluorophenyl)acetyl]-2,3-dihydro-1H-indol-5-yl}-1H-pyrazolo[3,4-d]pyrimidin-4-amine]	≤ 2.51
Cc1cccc(CC(=O)N2CCc3cc(-c4cn(C)c5ncnc(N)c45)ccc32)n1 [Example 121, 7-methyl-5-{1-[(6-methyl-2-pyridinyl)acetyl]-2,3-dihydro-1H-indol-5-yl}-7H-pyrrolo[2,3-d]pyrimidin-4-amine]	≤ 2.51
Cn1cc(-c2ccc3c(c2F)CCN3C(=O)Cc2cccc(C(F)(F)F)n2)c2c(N)ncnc21 [Example 137, 5-(4-fluoro-1-{[6-(trifluoromethyl)-2-pyridinyl]acetyl}-2,3-dihydro-1H-indol-5-yl)-7-methyl-7H-pyrrolo[2,3-d]pyrimidin-4-amine]	≤ 1
COc1cccc(CC(=O)N2CCc3cc(-c4csc5ccnc(N)c45)ccc32)c1 [Example 23, 3-(1-{[3-(methyloxy)phenyl]acetyl}-2,3-dihydro-1H-indol-5-yl)thieno[3,2-c]pyridin-4-amine]	≤ 2.51
Cn1cc(-c2ccc3c(c2)CCN3C(=O)Cc2ccc(F)cc2F)c2c(N)ncnc21 [Example 102, 5-{1-[(2,4-difluorophenyl)acetyl]-2,3-dihydro-1H-indol-5-yl}-7-methyl-7H-pyrrolo[2,3-d]pyrimidin-4-amine]	≤ 2.51
Cn1cc(-c2ccc3c(c2)CCN3C(=O)Cc2cc(F)cc(Cl)c2)c2c(N)ncnc21 [Example 53, 5-{1-[(3-chloro-5-fluorophenyl)acetyl]-2,3-dihydro-1H-indol-5-yl}-7-methyl-7H-pyrrolo[2,3-d]pyrimidin-4-amine]	≤ 0.316
Nc1ncc(C2=CCNCC2)c2scc(-c3ccc4c(c3)CCN4C(=O)Cc3ccccc3)c12 [Example 19, 3-[1-(phenylacetyl)-2,3-dihydro-1H-indol-5-yl]-7-(1,2,3,6-tetrahydro-4-pyridinyl)thieno[3,2-c]pyridin-4-amine]	≤ 2.51
Cc1cccc(CC(=O)N2CCc3cc(-c4nn(C(C)C)c5ncnc(N)c45)ccc32)c1 [Example 82, 1-(1-methylethyl)-3-{1-[(3-methylphenyl)acetyl]-2,3-dihydro-1H-indol-5-yl}-1H-pyrazolo[3,4-d]pyrimidin-4-amine]	≤ 2.51
Nc1ncnc2scc(-c3ccc4c(c3)CCN4C(=O)Cc3cc(F)ccc3F)c12 [Example 31, 5-{1-[(2,5-difluorophenyl)acetyl]-2,3-dihydro-1H-indol-5-yl}thieno[2,3-d]pyrimidin-4-amine]	≤ 1
Cn1cc(-c2ccc3c(c2F)CCN3C(=O)Cc2ccccc2)c2c(N)ncnc21 [Example 112, 5-[4-fluoro-1-(phenylacetyl)-2,3-dihydro-1H-indol-5-yl]-7-methyl-7H-pyrrolo[2,3-d]pyrimidin-4-amine]	≤ 0.316
Nc1ncnc2[nH]cc(-c3ccc4c(c3)CCN4C(=O)Cc3cccc(C(F)(F)F)c3)c12 [Example 148, 5-(1-{[3-(trifluoromethyl)phenyl]acetyl}-2,3-dihydro-1H-indol-5-yl)-1H-pyrrolo[2,3-d]pyrimidin-4-amine]	≤ 0.316
Cn1cc(-c2ccc3c(c2)CCN3C(=O)Cc2cccc(C(F)(F)F)n2)c2c(N)ncnc21 [Example 125, 7-methyl-5-(1-{[6-(trifluoromethyl)-2-pyridinyl]acetyl}-2,3-dihydro-1H-indol-5-yl)-7H-pyrrolo[2,3-d]pyrimidin-4-amine]	≤ 1
Cc1cc(F)cc(CC(=O)N2CCc3cc(-c4cn(C)c5ncnc(N)c45)ccc32)c1 [Example 45, 5-{1-[(3-fluoro-5-methylphenyl)acetyl]-2,3-dihydro-1H-indol-5-yl}-7-methyl-7H-pyrrolo[2,3-d]pyrimidin-4-amine]	≤ 0.316
Cn1nc(-c2ccc3c(c2)CCN3C(=O)Cc2cccc(Cl)c2)c2c(N)ncnc21 [Example 42, 3-{1-[(3-chlorophenyl)acetyl]-2,3-dihydro-1H-indol-5-yl}-1-methyl-1H-pyrazolo[3,4-d]pyrimidin-4-amine]	≤ 2.51
Cc1cc(F)cc(CC(=O)N2CCc3cc(-c4nn(C)c5ncnc(N)c45)ccc32)c1 [Example 29, 3-{1-[(3-fluoro-5-methylphenyl)acetyl]-2,3-dihydro-1H-indol-5-yl}-1-methyl-1H-pyrazolo[3,4-d]pyrimidin-4-amine]	≤ 0.316
Cn1cc(-c2ccc3c(c2)CCN3C(=O)Cc2cc(F)cc(F)c2)c2c(N)ncnc21 [Example 89, 5-{1-[(3,5-difluorophenyl)acetyl]-2,3-dihydro-1H-indol-5-yl}-7-methyl-7H-pyrrolo[2,3-d]pyrimidin-4-amine]	≤ 1
CN(C)CCn1cc(-c2ccc3c(c2)CCN3C(=O)Cc2cccc(C(F)(F)F)c2)c2c(N)ncnc21 [Example 134, 7-[2-(dimethylamino)ethyl]-5-(1-{[3-(trifluoromethyl)phenyl]acetyl}-2,3-dihydro-1H-indol-5-yl)-7H-pyrrolo[2,3-d]pyrimidin-4-amine]	≤ 1
Cc1cccc(CC(=O)N2CCc3cc(-c4nn(C)c5ncnc(N)c45)ccc32)c1 [Example 18, 1-methyl-3-(1[(3-methylphenyl)acetyl]-2,3-dihydro-1H-indol-5-yl)-1H-pyrazolo[3,4-d]pyrimidin-4-amine]	≤ 1
Cc1cccc(CC(=O)N2CCc3cc(-c4cn(C)c5ncnc(N)c45)ccc32)c1 [Example 37, 7-methyl-5-{1-[(3-methylphenyl)acetyl]-2,3-dihydro-1H-indol-5-yl}-7H-pyrrolo[2,3-d]pyrimidin-4-amine]	≤ 0.316
Cc1ccc(C)c(CC(=O)N2CCc3cc(-c4nn(C)c5ncnc(N)c45)ccc32)c1 [Example 28, 3-{1-[(2,5-dimethylphenyl)acetyl]-2,3-dihydro-1H-indol-5-yl}-1-methyl-1H-pyrazolo[3,4-d]pyrimidin-4-amine]	≤ 0.316
Cn1cc(-c2ccc3c(c2F)CCN3C(=O)Cc2ccc(F)cc2)c2c(N)ncnc21 [Example 141, 5-{4-fluoro-1-[(4-fluorophenyl)acetyl]-2,3-dihydro-1H-indol-5-yl}-7-methyl-7H-pyrrolo[2,3-d]pyrimidin-4-amine]	≤ 0.316
Cn1cc(-c2ccc3c(c2)CCN3C(=O)Cc2ccc(F)cc2)c2c(N)ncnc21 [Example 93, 5-{1-[(4-fluorophenyl)acetyl]-2,3-dihydro-1H-indol-5-yl}-7-methyl-7H-pyrrolo[2,3-d]pyrimidin-4-amine]	≤ 2.51
Nc1nccc2scc(-c3ccc4c(c3)CCN4C(=O)Cc3cc(F)ccc3F)c12 [Example 6, 3-{1-[(2,5-difluorophenyl)acetyl]-2,3-dihydro-1H-indol-5-yl}thieno[3,2-c]pyridin-4-amine]	≤ 2.51
